Reference: patent publication US10905683B2, “Compositions and uses of amidine derivatives” (BIOCRYST PHARMACEUTICALS, INC., priority 2014, dated 2021)

Test: Solubility in organic solvents
Assay type: physicochemical
Protocol: The solubility of the compound of Example 1 in a range of organic solvents was measured. Solubility assays were performed by the sequential addition of the compound of Example 1 to an appropriate organic solvent while stirring vigorously until a precipitate is formed. The resulting suspension is then shaken for 24 hours at room temperature, filtered and the resulting solution was analyzed by appropriate analytical method. Quantitation was performed by comparison of the concentrations of the resulting solution of the compound of Example 1 to a single point calibration curve using a solution of the reference standard.

## C=Cc1cc(C(=O)Nc2ccc(C(=N)N)cc2)c(-c2ccc(C(=O)NCC3CC3)nc2C(=O)O)cc1OC [Example 1, 3-[2-(4-carbamimidoyl-phenylcarbamoyl)-5-methoxy-4-vinyl-phenyl]-6-(cyclopropylmethyl-carbamoyl)-pyridine-2-carboxylic acid]
Dimethyl acetamide, 40% solvent in water
  Saturated concentration of Example 1: 12.9 mg/mL
Dimethyl acetamide, 60% solvent in water
  Saturated concentration of Example 1: 24.8 mg/mL
Ethanol, 40% solvent in water
  Saturated concentration of Example 1: 5.9 mg/mL
Ethanol, 60% solvent in water
  Saturated concentration of Example 1: 21.8 mg/mL
Ethanol, 100%
  Saturated concentration of Example 1: 23.9 mg/mL
Glycerol, 100%
  Saturated concentration of Example 1: 5.5 mg/mL
N-Methyl-2-pyrrolidone, 100%, not saturated
  Saturated concentration of Example 1: >11 (not saturated) mg/mL
Polyethylene glycol 400, 40% solvent in water
  Saturated concentration of Example 1: 11.9 mg/mL
Polyethylene glycol 400, 60% solvent in water
  Saturated concentration of Example 1: 18.6 mg/mL
Polyethylene glycol 400, 100%
  Saturated concentration of Example 1: 21.2 mg/mL
Propylene glycol, 40% solvent in water
  Saturated concentration of Example 1: 2.67 mg/mL
Propylene glycol, 60% solvent in water
  Saturated concentration of Example 1: 27.9 mg/mL
Propylene glycol, 100%
  Saturated concentration of Example 1: >55 mg/mL
